Assays:
[1] = tested on: Bacillus cereus (ATCC 11778); assay: MIC, NCCLS broth microdilution assay; format: cell-based; conditions: A = B. cereus ATCC 11778
Outline: (§1)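 NCCLS-standard broth microdilution gives the MIC values here. The antifungal determination used a clinical microbiology manual method instead.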

[2] = tested on: Enterococcus faecium (ATCC 51559, a vancomycin resistant strain (VRE)); assay: MIC, NCCLS broth microdilution assay; format: cell-based; conditions: D = E. faecium ATCC 51559
Outline: as §1

[3] = tested on: Staphylococcus aureus (ATCC 13709, a methicillin sensitive strain (MSSA)); assay: MIC, NCCLS broth microdilution assay; format: cell-based; conditions: E = S. aureus ATCC 13709
Outline: as §1

[4] = tested on: Staphylococcus aureus (ATCC 27660, a methicillin resistant strain (MRSA)); assay: MIC, NCCLS broth microdilution assay; format: cell-based; conditions: F = S. aureus ATCC 27660
Outline: as §1

[5] = tested on: Staphylococcus epidermidis (ATCC 12228); assay: MIC, NCCLS broth microdilution assay; format: cell-based; conditions: G = S. epidermidis ATCC 12228
Outline: as §1

[6] = tested on: Streptococcus pneumoniae (ATCC 51422, a penicillin resistant strain (PRSP)); assay: MIC, NCCLS broth microdilution assay; format: cell-based; conditions: I = S. pneumoniae ATCC 51422
Outline: as §1

[7] = tested on: Candida albicans (ATCC 38247); assay: Antifungal MIC assay; format: cell-based; conditions: B = C. albicans ATCC 38247
Outline: as §1

[8] = tested on: methicillin resistant Staphylococcus aureus ATCC 33591; assay: Murine neutropenic thigh model; format: in vivo; conditions: neutropenic female CF1 mice, 6 hr after treatment
Experimental: A S. aureus ATCC 33591 culture was grown to log phase overnight and diluted in phosphate buffered saline (pH 7.2) to an optical density of about 0.1 at 600 nm, giving an approximate concentration of 10^8 cfu/mL. The suspension was diluted 1:100 in phosphate buffered saline (pH 7.2) for a final concentration of 10^6 cfu/mL.
Outbred female CF1 mice (approx. 20 gram body weight) were rendered neutropenic by treatment with cyclophosphamide (200 mg/kg body weight, intraperitoneal injection) at 2 and 4 days prior to inoculation. Groups of 5 mice were inoculated with 0.05 mL of the bacteria (approx. 10^6 cfu/mL) into the anterior thigh. Each group was treated intravenously two hours post infection with vehicle (phosphate buffered saline) or test compound. The mice were sacrificed at either 6 or 24 hrs after treatment and thighs were collected aseptically. Each thigh was weighed, placed into sterile saline, and homogenized. The tissue homogenates were diluted appropriately for plating on agar plates. Colony counts were recorded (cfu/gram) and compared to control groups.
In vivo efficacy was shown by a decrease in colony count (log cfu/gram of tissue) in the compound-treated animals when compared against the colony count in animals given only the vehicle.

E. faecalis ATCC 29212 = assay: MIC, NCCLS broth microdilution assay; format: cell-based, Enterococcus faecalis; conditions: C = E. faecalis ATCC 29212
Outline: (§2)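 Broth microdilution per NCCLS M7-A4 (1997) guidelines; MIC recorded as minimal inhibitory concentration.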

S. pneumoniae ATCC 49619 = assay: MIC, NCCLS broth microdilution assay; format: cell-based, Streptococcus pneumoniae; conditions: H = S. pneumoniae ATCC 49619
Outline: as §2

[9] = 25 mg/kg intravenously two hours post infection
[10] = 50 mg/kg intravenously two hours post infection

SMILES	Minimum Inhibitory Concentration (MIC) [1]	Minimum Inhibitory Concentration (MIC) [2]	Minimum Inhibitory Concentration (MIC) [3]	Minimum Inhibitory Concentration (MIC) [4]	Minimum Inhibitory Concentration (MIC) [5]	Minimum Inhibitory Concentration (MIC) [6]	Minimum Inhibitory Concentration (MIC) [7]	Colony Count (log cfu/gram) Compound [8, 9] [log cfu/gram]	Colony Count (log cfu/gram) Compound [8, 10] [log cfu/gram]	Minimum Inhibitory Concentration (MIC) (E. faecalis ATCC 29212)	Minimum Inhibitory Concentration (MIC) (S. pneumoniae ATCC 49619)
Cn1cc(NC(=O)c2cc(NC(=O)c3cc(NC(=O)c4ccc(F)cc4F)c[nH]3)cn2C)cc1C(=O)NCCN1CCCCC1 [Compound A-4]	+++ (+++ = MIC ≦ 4)	+++ (+++ = MIC ≦ 4)	+++ (+++ = MIC ≦ 4)	+++ (+++ = MIC ≦ 4)	+++ (+++ = MIC ≦ 4)	+++ (+++ = MIC ≦ 4)	++ (++ = 4 < MIC < 12)	5.75	4.99	+ (+ = 12 ≦ MIC ≦ 32)	+++ (+++ = MIC ≦ 4)
Cn1cc(NC(=O)c2cc(NC(=O)c3cc(NC(=O)c4ccc(F)cc4F)c[nH]3)cn2C)cc1C(=O)NCCN1CCC(O)CC1 [Compound A-8]	+++ (+++ = MIC ≦ 4)	+++ (+++ = MIC ≦ 4)	+++ (+++ = MIC ≦ 4)	+++ (+++ = MIC ≦ 4)	+++ (+++ = MIC ≦ 4)	+++ (+++ = MIC ≦ 4)	+ (+ = 12 ≦ MIC ≦ 32)	5.85	4.45	+++ (+++ = MIC ≦ 4)	+++ (+++ = MIC ≦ 4)
Cn1cc(NC(=O)c2cc(NC(=O)c3cc(NC(=O)c4ccc(F)cc4F)c[nH]3)cn2C)cc1C(=O)NCCN1CCCC1 [Compound A-9]	+++ (+++ = MIC ≦ 4)	+++ (+++ = MIC ≦ 4)	+++ (+++ = MIC ≦ 4)	+++ (+++ = MIC ≦ 4)	+++ (+++ = MIC ≦ 4)	+++ (+++ = MIC ≦ 4)	+ (+ = 12 ≦ MIC ≦ 32)	7.11	5.11	+++ (+++ = MIC ≦ 4)	+ (+ = 12 ≦ MIC ≦ 32)
Cn1cc(NC(=O)c2cc(NC(=O)c3cc(NC(=O)c4ccc(Cl)cc4F)c[nH]3)cn2C)cc1C(=O)NCCN1CCC(F)CC1 [Compound A-26]	+++ (+++ = MIC ≦ 4)		+++ (+++ = MIC ≦ 4)	+++ (+++ = MIC ≦ 4)			++ (++ = 4 < MIC < 12)	6.37	5.34	+++ (+++ = MIC ≦ 4)	+++ (+++ = MIC ≦ 4)
Cn1cc(NC(=O)c2cc(NC(=O)c3cc(NC(=O)c4ccc(F)cc4F)cn3C)cn2C)cc1C(=O)NCCN1CCCCC1 [Compound B-6]	+++ (+++ = MIC ≦ 4)	+++ (+++ = MIC ≦ 4)	+++ (+++ = MIC ≦ 4)	+++ (+++ = MIC ≦ 4)	+++ (+++ = MIC ≦ 4)	+++ (+++ = MIC ≦ 4)	>32 µg/mL		6.37	+++ (+++ = MIC ≦ 4)	+++ (+++ = MIC ≦ 4)
Cn1cc(NC(=O)c2cc(NC(=O)c3cc(NC(=O)c4ccc(Cl)cc4F)cn3C)cn2C)cc1C(=O)NCCN1CCOCC1 [Compound B-47]	+++ (+++ = MIC ≦ 4)	+++ (+++ = MIC ≦ 4)		+++ (+++ = MIC ≦ 4)	+++ (+++ = MIC ≦ 4)	+++ (+++ = MIC ≦ 4)	>32 µg/mL		7.53	+++ (+++ = MIC ≦ 4)	+++ (+++ = MIC ≦ 4)
CN(C)CCCNC(=O)c1cc(NC(=O)c2cc(NC(=O)c3cc(NC(=O)c4ccc(Cl)cc4F)cn3C)cn2C)cn1C [Compound B-50]	+++ (+++ = MIC ≦ 4)		+++ (+++ = MIC ≦ 4)	+++ (+++ = MIC ≦ 4)			+++ (+++ = MIC ≦ 4)		6.58	+++ (+++ = MIC ≦ 4)	+++ (+++ = MIC ≦ 4)
Cn1cc(NC(=O)c2cc(NC(=O)c3cc(NC(=O)c4ccc(Cl)cc4)cn3C)cn2C)cc1C(=O)NCCN1CCOCC1 [Compound B-56]	+++ (+++ = MIC ≦ 4)		+++ (+++ = MIC ≦ 4)	+++ (+++ = MIC ≦ 4)			>32 µg/mL		6.38	+++ (+++ = MIC ≦ 4)	+++ (+++ = MIC ≦ 4)
Cn1cc(NC(=O)c2cc(NC(=O)c3cc(NC(=O)c4ccc(C#N)cc4)cn3C)cn2C)cc1C(=O)NCCN1CCOCC1 [Compound B-67]	+++ (+++ = MIC ≦ 4)						>32 µg/mL		7.73	+++ (+++ = MIC ≦ 4)	+++ (+++ = MIC ≦ 4)
Cc1cc(NC(=O)c2cc(NC(=O)c3cc(NC(=O)c4ccc(F)cc4F)cn3C)cn2CCCN(C)C)sn1 [Compound D-3]	+++ (+++ = MIC ≦ 4)	+ (+ = 12 ≦ MIC ≦ 32)	+++ (+++ = MIC ≦ 4)	+++ (+++ = MIC ≦ 4)	+++ (+++ = MIC ≦ 4)	+++ (+++ = MIC ≦ 4)	+++ (+++ = MIC ≦ 4)		6.28	+++ (+++ = MIC ≦ 4)	+++ (+++ = MIC ≦ 4)
Cc1cc(NC(=O)c2cc(NC(=O)c3cc(NC(=O)c4ccc(Cl)cc4F)c[nH]3)cn2CCCN(C)C)sn1 [Compound D-11]	+++ (+++ = MIC ≦ 4)	+++ (+++ = MIC ≦ 4)	+++ (+++ = MIC ≦ 4)	+++ (+++ = MIC ≦ 4)	+++ (+++ = MIC ≦ 4)	+++ (+++ = MIC ≦ 4)	+++ (+++ = MIC ≦ 4)		6.25	+++ (+++ = MIC ≦ 4)	+++ (+++ = MIC ≦ 4)
Cc1cc(NC(=O)c2cc(NC(=O)c3cc(NC(=O)c4ccc(Cl)cc4F)cn3C)cn2CCCN(C)C)sn1 [Compound D-12]	+++ (+++ = MIC ≦ 4)	++ (++ = 4 < MIC < 12)	+++ (+++ = MIC ≦ 4)	+++ (+++ = MIC ≦ 4)	+++ (+++ = MIC ≦ 4)	+++ (+++ = MIC ≦ 4)	+++ (+++ = MIC ≦ 4)			+++ (+++ = MIC ≦ 4)	+++ (+++ = MIC ≦ 4)
Cn1cc(NC(=O)c2cc(NC(=O)c3ccc(Cl)cc3F)c[nH]2)cc1C(=O)Nc1cc(C(=O)NCCN2CCCCC2)n(CCN2CCOCC2)c1 [Compound D-13]	+++ (+++ = MIC ≦ 4)	++ (++ = 4 < MIC < 12)	+++ (+++ = MIC ≦ 4)	+++ (+++ = MIC ≦ 4)	+++ (+++ = MIC ≦ 4)	+++ (+++ = MIC ≦ 4)	+ (+ = 12 ≦ MIC ≦ 32)			+++ (+++ = MIC ≦ 4)	+++ (+++ = MIC ≦ 4)

Source: patent publication US7348427B2, “Antipathogenic benzamide compounds” (Genesoft Pharmaceuticals, Inc., priority 2001, dated 2008)
